Source: the supplement of paper PMC11208160

Experiment: recombinant barcode read abundance after kanamycin selection (control-corrected) (log10(CPM+1)); higher = more efficient recombination; sequences stand for … in AGTGCAGAGAAAATCGGCCAGTTTTCTCTGCCTGCAGTCCGCATGCCGT…AGATTTATGCAGCGGACTGCCTTTCTCCCAAAGTGATAAACCGGACAGTATCATGGACCGGTTTTCCCGGTAATCCGTATTTGCAAGGTTGGTTTCACT; site = the 11-nt target
Experimental: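 Pooled E. coli target-specificity screen for the IS621 bridge recombinase. Each library plasmid pairs an 11-nt target (CT core) with a bridge RNA whose target-binding loop (9-nt LTG + 4-nt RTG) is reprogrammed; the rest of the 177-nt WT IS621 bridge RNA scaffold is fixed. The plasmid is co-electroporated with a WT donor plasmid; recombinase is induced with 0.1 mM IPTG and recombinants are selected on kanamycin. Recombinant barcodes are sequenced, converted to CPM, averaged over two biological replicates and corrected by the unselected control CPM. Molecule = full bridge RNA written as DNA: LTG = specificity nt 1-9, RTG = reverse complement of specificity nt 8-11, in the WT scaffold.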
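Also: IS621 recombinase and bridge RNA in Escherichia coli cells.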

“CTGGCTCCTTGGGTTCTAACCTGTTGCTT (site CTGGCTCCTAA)” and “CTAACTCCTTGGGTTCTAACCTGTTGCAT (site CTAATTCCTAT)” are within 0.2 log units of each other in “recombinant barcode read abundance (log10)” value: 0.227 for the first, 0.0675 for the second.

First: GCATGAGCTTGGGTTCTAACCTGTTGCCT (site GCTTGAGCTAG)
Second: ATGCAAACTTGGGTTCTAACCTGTTGCCT (site ATGCAATCTAG)
The “recombinant barcode read abundance (log10)” value of the first is higher: 0.914 for the first, 0.151 for the second.

“CGAATCCCTTGGGTTCTAACCTGTTGCCT (site CGAATCCCTAG)” and “AAGCAATCTTGGGTTCTAACCTGTTGCCT (site AAGCAATCTAG)” are within 0.2 log units of each other in “recombinant barcode read abundance (log10)” value: 0.809 for the first, 0.927 for the second.

“TGATAGCCTTGGGTTCTAACCTGTTGCCT (site CGATAGCCTAG)” and “TCTGAGGCTTGGGTTCTAACCTGTTGCTG (site TCCGAGGCTCA)” are within 0.2 log units of each other in “recombinant barcode read abundance (log10)” value: 0.0141 for the first, 0.129 for the second.

First: GGATTCCCTTGGGTTCTAACCTGTTGCCA (site GGAGTCCCTTC)
Second: CACCACTCTTGGGTTCTAACCTGTTGCCT (site AACCACTCTAG)
The “recombinant barcode read abundance (log10)” value of the first is lower: 0.242 for the first, 0.545 for the second.

First: TAGCCGACTTGGGTTCTAACCTGTTGCCT (site TAGCCGACTAG)
Second: GTGTGTCCTTGGGTTCTAACCTGTTGCAT (site GTGTATCCTAT)
The “recombinant barcode read abundance (log10)” value of the first is higher: 1.59 for the first, 0.381 for the second.

“AGTTACACTTGGGTTCTAACCTGTTGCCT (site AGTTCCACTAG)” and “ACGGGTACTTGGGTTCTAACCTGTTGCCT (site ACTGGTACTAG)” are within 0.2 log units of each other in “recombinant barcode read abundance (log10)” value: 0.0139 for the first, 0.165 for the second.

“GGCTGCACTTGGGTTCTAACCTGTTGCCT (site GGCGGTACTAG)” and “GGCTGATCTTGGGTTCTAACCTGTTGCCT (site GGCTGATCTAG)” are within 0.2 log units of each other in “recombinant barcode read abundance (log10)” value: 0.504 for the first, 0.382 for the second.

Going from “GATGAGTCTTGGGTTCTAACCTGTTGCCT (site GATGAGTCTAA)” to “TATGTAGCTTGGGTTCTAACCTGTTGCCT (site TATGTAGCTTG)”, the “recombinant barcode read abundance (log10)” value falls from 0.71 to 0.129.

“CTCGTCACTTGGGTTCTAACCTGTTGCCT (site CTCGTAACTAG)” and “ACATTAGCTTGGGTTCTAACCTGTTGCAA (site ACTTTAGCTCT)” are within 0.2 log units of each other in “recombinant barcode read abundance (log10)” value: 0.106 for the first, 0.0541 for the second.

Compared with “TAGGAACCTTGGGTTCTAACCTGTTGCCT (site TAGGAACCTAG)”, “CTAATTCCTTGGGTTCTAACCTGTTGCAT (site CTAAATCCTAT)” is lower in “recombinant barcode read abundance (log10)” value: 2.63 for the first, 0.0881 for the second.

Going from “ACAGTCGCTTGGGTTCTAACCTGTTGCCT (site ACAGCCGCTAG)” to “GGCTTGACTTGGGTTCTAACCTGTTGCCT (site GGCTTGACTAG)”, the “recombinant barcode read abundance (log10)” value rises from 0.0854 to 0.694.

Compared with “CAAAGGGCTTGGGTTCTAACCTGTTGCAG (site CAAAAGGCTCT)”, “TTGGCCACTTGGGTTCTAACCTGTTGCCT (site TTGGACACTAG)” is lower in “recombinant barcode read abundance (log10)” value: 1.17 for the first, 0.0972 for the second.

“GCCCAATCTTGGGTTCTAACCTGTTGCCT (site GCCCGATCTAG)” and “CCACTACCTTGGGTTCTAACCTGTTGCCT (site CCACTTCCTAG)” are within 0.2 log units of each other in “recombinant barcode read abundance (log10)” value: 0.176 for the first, 0.0936 for the second.

Going from “GGGGTCCCTTGGGTTCTAACCTGTTGCCA (site GAGATCCCTTG)” to “AAACTAGCTTGGGTTCTAACCTGTTGCGG (site AAACTAGCTCC)”, the “recombinant barcode read abundance (log10)” value rises from 0.247 to 2.27.

“ACTAAGCCTTGGGTTCTAACCTGTTGCGG (site AGTAAGCCTCT)” and “TATGCTTCTTGGGTTCTAACCTGTTGCTT (site TATGCTTCTAA)” are within 0.2 log units of each other in “recombinant barcode read abundance (log10)” value: 0.151 for the first, 0.0973 for the second.

“AATTGTCCTTGGGTTCTAACCTGTTGCAT (site AATTGTCCTAC)” and “TCCTAGACTTGGGTTCTAACCTGTTGCGG (site TTCTAGACTCC)” are within 0.2 log units of each other in “recombinant barcode read abundance (log10)” value: 0.102 for the first, 0.117 for the second.

“GTTACACCTTGGGTTCTAACCTGTTGCCT (site GTTTCACCTAG)” and “GACTCGACTTGGGTTCTAACCTGTTGCTT (site GAATCAACTAA)” are within 0.2 log units of each other in “recombinant barcode read abundance (log10)” value: 0.187 for the first, 0.122 for the second.

“TCCTGTACTTGGGTTCTAACCTGTTGCAT (site TCCAGTACTAT)” and “ACTGTAACTTGGGTTCTAACCTGTTGCTT (site ACTATAACTAA)” are within 0.2 log units of each other in “recombinant barcode read abundance (log10)” value: 0.272 for the first, 0.102 for the second.

Going from “GAGTTGTCTTGGGTTCTAACCTGTTGCGG (site GAGTTGTCTCC)” to “CAAGTAGCTTGGGTTCTAACCTGTTGCCT (site CAAGTCGCTAG)”, the “recombinant barcode read abundance (log10)” value falls from 1.83 to 0.123.

Going from “AGGAATTCTTGGGTTCTAACCTGTTGCCT (site AGCAATTCTAG)” to “CTCGAACCTTGGGTTCTAACCTGTTGCTG (site CTCGAATCTTA)”, the “recombinant barcode read abundance (log10)” value falls from 0.356 to 0.077.

“ATGTCTACTTGGGTTCTAACCTGTTGCAG (site TGCCTATCTAA)” and “TTGTATACTTGGGTTCTAACCTGTTGCCT (site GTGTCTACTAG)” are within 0.2 log units of each other in “recombinant barcode read abundance (log10)” value: 0.219 for the first, 0.129 for the second.

Compared with “TGTACCTCTTGGGTTCTAACCTGTTGCCT (site TGTTCCTCTAG)”, “TCCCAGTCTTGGGTTCTAACCTGTTGCGT (site TCCCAGTCTAC)” is higher in “recombinant barcode read abundance (log10)” value: 0.0524 for the first, 2.59 for the second.

“AAGCGTCCTTGGGTTCTAACCTGTTGCCT (site AAGCGTTCTAG)” and “CGTAATGCTTGGGTTCTAACCTGTTGCCT (site CGAAATGCTAG)” are within 0.2 log units of each other in “recombinant barcode read abundance (log10)” value: 0.06 for the first, 0.178 for the second.

First: CATAGATCTTGGGTTCTAACCTGTTGCTT (site CATAGATCTAA)
Second: GATGTACCTTGGGTTCTAACCTGTTGCCT (site AATGTACCTAG)
The “recombinant barcode read abundance (log10)” value of the first is lower: 0.119 for the first, 0.984 for the second.

“ATCAACCCTTGGGTTCTAACCTGTTGCCA (site TCGTCTACTGA)” and “ACGTGGTCTTGGGTTCTAACCTGTTGCTA (site ACGTGGCCTTG)” are within 0.2 log units of each other in “recombinant barcode read abundance (log10)” value: 0.375 for the first, 0.534 for the second.

First: TCCGGCGCTTGGGTTCTAACCTGTTGCGG (site TCCGGCGCTCC)
Second: CAGCGGCCTTGGGTTCTAACCTGTTGCCT (site CAGGGGCCTAG)
The “recombinant barcode read abundance (log10)” value of the first is higher: 1.75 for the first, 0.121 for the second.

Compared with “GTAATAGCTTGGGTTCTAACCTGTTGCAT (site ATAATAGCTAT)”, “TAATTGCCTTGGGTTCTAACCTGTTGCCT (site TACTTGCCTAG)” is lower in “recombinant barcode read abundance (log10)” value: 0.695 for the first, 0.324 for the second.

Compared with “TAGGAACCTTGGGTTCTAACCTGTTGCCT (site CAGGAACCTAG)”, “ATTCGAGCTTGGGTTCTAACCTGTTGCGG (site GTTCGAGCTCC)” is lower in “recombinant barcode read abundance (log10)” value: 0.649 for the first, 0.0863 for the second.

“AGTCATACTTGGGTTCTAACCTGTTGCAT (site AGTCATCCTAG)” and “CTAATGACTTGGGTTCTAACCTGTTGCAC (site CTAATGCCTAT)” are within 0.2 log units of each other in “recombinant barcode read abundance (log10)” value: 0.0486 for the first, 0.227 for the second.

Going from “TCTTGTCCTTGGGTTCTAACCTGTTGCGT (site TCTTGTCCTGC)” to “AGGTCACCTTGGGTTCTAACCTGTTGCAT (site AGGTCACCTAT)”, the “recombinant barcode read abundance (log10)” value rises from 0.172 to 2.12.

Going from “CCTGGACCTTGGGTTCTAACCTGTTGCGT (site CCTGGGCCTAA)” to “CCTTAGTCTTGGGTTCTAACCTGTTGCAG (site CCTTAGTCTCT)”, the “recombinant barcode read abundance (log10)” value rises from 0.0265 to 1.15.

“ACTGCTCCTTGGGTTCTAACCTGTTGCCT (site CTCTGAGCTCT)” and “ATTTAAGCTTGGGTTCTAACCTGTTGCCT (site GAGCGGCCTCT)” are within 0.2 log units of each other in “recombinant barcode read abundance (log10)” value: 0.0903 for the first, 0.0137 for the second.

Going from “GTCGTCCCTTGGGTTCTAACCTGTTGCCA (site GTCGTCCCTTG)” to “GCCTAGTCTTGGGTTCTAACCTGTTGCCA (site TCCTAGTCTTG)”, the “recombinant barcode read abundance (log10)” value falls from 0.231 to 0.0302.

“TAGGTGCCTTGGGTTCTAACCTGTTGCGG (site TAGGTGACTCC)” and “TACTATTCTTGGGTTCTAACCTGTTGCCT (site TACTATTCTAG)” are within 0.2 log units of each other in “recombinant barcode read abundance (log10)” value: 0.134 for the first, 0.263 for the second.

Compared with “GCCATACCTTGGGTTCTAACCTGTTGCCT (site GCCAAACCTAG)”, “TAGTACTCTTGGGTTCTAACCTGTTGCTT (site TAGTACTCTAA)” is higher in “recombinant barcode read abundance (log10)” value: 0.0715 for the first, 1.14 for the second.

First: GGTAAGACTTGGGTTCTAACCTGTTGCGG (site GGTAAGACTCC)
Second: ATTAAGACTTGGGTTCTAACCTGTTGCCT (site ATCAAGACTAG)
The “recombinant barcode read abundance (log10)” value of the first is higher: 1.64 for the first, 0.484 for the second.

Going from “GGTCTAACTTGGGTTCTAACCTGTTGCCT (site GGTCAAACTAG)” to “GTGTGTCCTTGGGTTCTAACCTGTTGCAT (site GTGTGTCCTAT)”, the “recombinant barcode read abundance (log10)” value rises from 0.0448 to 1.7.

First: GCGCACACTTGGGTTCTAACCTGTTGCCT (site GCGCACACTAG)
Second: CTAGATTCTTGGGTTCTAACCTGTTGCCT (site CAAGATTCTAG)
The “recombinant barcode read abundance (log10)” value of the first is higher: 1.05 for the first, 0.167 for the second.

“CGAGGGTCTTGGGTTCTAACCTGTTGCTT (site GGAGGGTCTAA)” and “ATAAGTCCTTGGGTTCTAACCTGTTGCCA (site ATAAGTCCTTG)” are within 0.2 log units of each other in “recombinant barcode read abundance (log10)” value: 0.413 for the first, 0.582 for the second.

First: AACGCCTCTTGGGTTCTAACCTGTTGCCT (site GACGCCTCTAG)
Second: CAGGTGCCTTGGGTTCTAACCTGTTGCCT (site CAGGTGCCTAG)
The “recombinant barcode read abundance (log10)” value of the first is lower: 0.178 for the first, 2.25 for the second.
